Tests used:
Format in all cases: cell-based
EZH2 = molecular target: T1, EZH2 (Homo sapiens, UniProt Q15910); experiment: Cellular assay of EZH2 degradation (MDA-MB-231 cells, Western blot); conditions: EZH2, MDA-MB-231 cells, PROTAC concentration 3 μM, relative to DMSO control
T1 construct: endogenous in cells; host or cells: MDA-MB-231
Procedure: Protocol of the Cellular Assay of EZH2 Degradation (MDA-MB-231 Cells, Western Blot).
MDA-MB-231 cells were plated at 10,000 cells per well in 6 well plates, 2 ml/well in DMEM+10% Fetal Bovine Serum. Cells were allowed to grow for 3 days at 37 degrees C. Cells were dosed with PROTACs. On day 3 and day 7 after dosing, cells were harvested and lysed with RIPA buffer. Lysed cells were transferred to eppendorf tubes, and each lysate was sonicated and then spinned in microfuge for 15 minutes at 20,000×g at 4 degrees C. Supernatant was transferred to a clean tube, and protein concentration was quantitated using the Pierce BCA Protein Assay kit (cat #23225). Lysate concentrations were adjusted to 1 microgram/microliter in lysis buffer. For Western blot samples were loaded in 4×LDS buffer, 10 microliters/lane, onto Noxex NuPage 4-12% Bis-Tris Midi Gel […]×26 well.
Gels were run on BioRad power source Model 1000/500, at 200V constant voltage for 1 hour. Gels were then transferred onto a nitrocellulose membrane using an iBlot2 transfer apparatus from Life Technologies. Transfers were done on Program 0 and blocked for 1 hour in TBS-T (Tris Buffered Saline with 0.05% Tween 20)+5% BSA (Bovine Serum Albumin). Block solution was decanted, and the primary antibody solutions were added (EZH2-Cell Signaling #5246S; tri-methyl-Histone H3-Cell Signaling #9733S; Histone H3-Cell Signaling #4499; all diluted 1:1000 in 20 ml TBS-T+5% BSA). The preparation was placed in cold room (4 degrees C.) overnight on rocker platform, after which the antibody solution was decanted. The preparation was washed 3 times in TBS-T for 10 minutes each, and anti-rabbit secondary antibody (Cell Signaling #7074S), diluted 1:20,000 in TBS-T+5% BSA, was added. This was followed by incubating for 1 hour at room temperature with gentle rocking and washing 3 times in TBS-T. To develop blots SuperSignal™ West Femto Maximum Sensitivity Substrate (Life Technologies Catalog number: 34095) solution was applied for 5 minutes. Blots were imaged on BioRad ChemiDoc Imager using the “Chemi Hi Sensitivity” protocol. Bands were quantitated using Image Lab software v 5.2.1.

JNK1 = molecular target: T2, JNK1 (Homo sapiens, UniProt P45983); experiment: Cellular assay of JNK degradation (A549 cells, Western blot), JNK1; conditions: for JNK1 degradation range: PROTAC concentration 1 μM, relative to DMSO control; for DC50: read-out: JNK1 DC50 range
T2 construct: A549 lung adenocarcinoma cells were purchased from ATCC and cultured in RPMI1640 Medium; endogenous in cells; host or cells: A549
T2 sequence (P45983 whole entry): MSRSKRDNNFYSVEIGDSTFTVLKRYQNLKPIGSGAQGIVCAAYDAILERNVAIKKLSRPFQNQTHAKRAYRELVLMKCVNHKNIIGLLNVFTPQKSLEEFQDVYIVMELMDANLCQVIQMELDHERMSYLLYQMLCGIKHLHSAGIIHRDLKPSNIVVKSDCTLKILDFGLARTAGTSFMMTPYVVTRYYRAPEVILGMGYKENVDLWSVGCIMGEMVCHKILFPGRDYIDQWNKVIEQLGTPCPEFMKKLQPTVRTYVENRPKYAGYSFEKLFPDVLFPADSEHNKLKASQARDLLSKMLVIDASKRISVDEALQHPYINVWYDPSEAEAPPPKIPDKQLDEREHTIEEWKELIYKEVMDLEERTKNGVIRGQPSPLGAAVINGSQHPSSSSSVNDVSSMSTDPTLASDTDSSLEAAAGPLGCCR
Procedure: (§1) Protocol of the cellular assay of JNK degradation (A549 cells, Western blot). A549 lung adenocarcinoma cells were purchased from ATCC and cultured in RPMI1640 Medium (Gibco) supplemented with 10% Fetal Bovine Serum (Gibco). […] Cells were stimulated with PMA (Phorbol 12-myristate 13-acetate, Sigma) for 1 hour before harvesting. Cells were lysed in Cell Signaling lysis buffer supplemented with protease inhibitors (Thermo). The lysates were centrifuged at 20,000×g for 15 minutes to clarify, and protein concentration was determined by BCA (Pierce). Equal amounts of protein (5 micrograms) were separated by SDS-PAGE and transferred onto nitrocellulose membranes. The mermbranes were probed with antibodies against SAPK/JNK (Cell Signaling #9252), phospho-c-Jun (Cell Signaling #3270), MDM2 (Sigma M4308) and p53 (Cell Signaling #2527). HRP-conjugated anti-rabbit and anti-mouse secondary antibodies were from Cell Signaling. The bands were visualized with SuperSignal West Femto Substrate (Thermo). Quantitation was done using Image Lab Software v5.2.1.

JNK2 = molecular target: T3, JNK2 (Homo sapiens, UniProt P45984); experiment: Cellular assay of JNK degradation (A549 cells, Western blot), JNK2; conditions: for JNK2 degradation range: PROTAC concentration 1 μM, relative to DMSO control; for DC50: read-out: JNK2 DC50 range
T3 construct: A549 lung adenocarcinoma cells were purchased from ATCC and cultured in RPMI1640 Medium; endogenous in cells; host or cells: A549
T3 sequence (P45984 whole entry): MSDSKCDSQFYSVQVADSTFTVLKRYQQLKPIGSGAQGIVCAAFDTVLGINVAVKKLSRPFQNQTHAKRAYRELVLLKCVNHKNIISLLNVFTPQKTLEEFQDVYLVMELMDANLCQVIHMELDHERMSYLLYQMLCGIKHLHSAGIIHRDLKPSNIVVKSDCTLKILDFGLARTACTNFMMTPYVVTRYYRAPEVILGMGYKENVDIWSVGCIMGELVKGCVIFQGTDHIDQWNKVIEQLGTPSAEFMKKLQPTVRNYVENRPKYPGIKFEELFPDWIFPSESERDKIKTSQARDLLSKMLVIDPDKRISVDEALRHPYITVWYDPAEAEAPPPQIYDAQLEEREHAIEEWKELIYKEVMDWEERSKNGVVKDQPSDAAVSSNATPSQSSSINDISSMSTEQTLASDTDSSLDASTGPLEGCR
Procedure: as §1

T1 sequence (Q15910 whole entry): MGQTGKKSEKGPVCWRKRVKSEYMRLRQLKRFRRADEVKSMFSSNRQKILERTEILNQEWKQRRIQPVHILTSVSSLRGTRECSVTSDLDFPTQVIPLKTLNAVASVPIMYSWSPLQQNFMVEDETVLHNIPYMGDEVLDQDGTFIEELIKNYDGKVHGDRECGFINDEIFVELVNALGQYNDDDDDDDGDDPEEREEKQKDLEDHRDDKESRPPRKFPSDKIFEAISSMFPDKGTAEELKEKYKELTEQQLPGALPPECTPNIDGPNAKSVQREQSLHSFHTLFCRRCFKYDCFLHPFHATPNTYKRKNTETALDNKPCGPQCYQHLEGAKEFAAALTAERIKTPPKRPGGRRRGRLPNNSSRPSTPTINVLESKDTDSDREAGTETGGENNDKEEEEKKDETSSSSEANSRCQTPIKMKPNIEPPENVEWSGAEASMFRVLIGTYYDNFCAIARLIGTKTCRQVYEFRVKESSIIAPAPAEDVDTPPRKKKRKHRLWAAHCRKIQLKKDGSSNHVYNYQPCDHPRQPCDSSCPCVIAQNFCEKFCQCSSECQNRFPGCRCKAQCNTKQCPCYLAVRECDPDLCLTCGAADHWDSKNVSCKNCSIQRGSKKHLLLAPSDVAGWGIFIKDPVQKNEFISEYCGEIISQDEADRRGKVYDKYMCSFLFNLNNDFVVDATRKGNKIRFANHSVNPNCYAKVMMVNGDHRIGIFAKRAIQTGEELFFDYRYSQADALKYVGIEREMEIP
T1 sequence (O75530 whole entry partner): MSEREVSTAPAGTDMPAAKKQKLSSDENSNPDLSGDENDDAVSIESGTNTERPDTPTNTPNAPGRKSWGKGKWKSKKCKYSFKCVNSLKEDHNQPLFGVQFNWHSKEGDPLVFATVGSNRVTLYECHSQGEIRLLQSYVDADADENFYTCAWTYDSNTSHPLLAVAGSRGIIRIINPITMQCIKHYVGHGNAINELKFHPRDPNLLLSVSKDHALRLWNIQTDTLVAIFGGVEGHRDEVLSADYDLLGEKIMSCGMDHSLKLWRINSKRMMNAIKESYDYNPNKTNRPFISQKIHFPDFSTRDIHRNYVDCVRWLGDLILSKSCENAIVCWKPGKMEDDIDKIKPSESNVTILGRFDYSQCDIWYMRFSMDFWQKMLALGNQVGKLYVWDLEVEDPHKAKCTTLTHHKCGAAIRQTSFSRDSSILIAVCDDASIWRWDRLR
T1 sequence (Q15022 whole entry partner): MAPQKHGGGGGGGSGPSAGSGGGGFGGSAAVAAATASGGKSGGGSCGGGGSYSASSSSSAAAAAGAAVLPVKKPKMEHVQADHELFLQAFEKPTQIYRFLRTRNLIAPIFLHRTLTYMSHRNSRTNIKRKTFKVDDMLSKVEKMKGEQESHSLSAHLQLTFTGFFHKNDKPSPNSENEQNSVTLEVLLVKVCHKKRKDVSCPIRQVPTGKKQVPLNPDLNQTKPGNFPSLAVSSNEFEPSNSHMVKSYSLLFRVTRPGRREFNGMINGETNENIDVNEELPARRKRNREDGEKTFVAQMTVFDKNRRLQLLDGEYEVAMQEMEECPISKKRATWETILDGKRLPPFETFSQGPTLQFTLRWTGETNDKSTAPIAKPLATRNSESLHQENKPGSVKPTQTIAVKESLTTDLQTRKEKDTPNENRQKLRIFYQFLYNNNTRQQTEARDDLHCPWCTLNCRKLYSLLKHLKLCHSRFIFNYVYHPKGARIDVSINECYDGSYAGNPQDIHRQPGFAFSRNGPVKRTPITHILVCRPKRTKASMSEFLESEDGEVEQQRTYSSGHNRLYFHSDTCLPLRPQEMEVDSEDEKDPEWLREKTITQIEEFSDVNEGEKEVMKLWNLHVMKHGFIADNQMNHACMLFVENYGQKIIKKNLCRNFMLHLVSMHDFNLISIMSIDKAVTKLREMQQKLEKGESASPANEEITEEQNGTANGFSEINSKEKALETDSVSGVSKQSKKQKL

Row | Target protein degradation range (EZH2) | JNK1 degradation range (JNK1) | DC50 (JNK1) [nM] | JNK2 degradation range (JNK2) | DC50 (JNK2) [nM] | SMILES
1 | C (degradation between 0% and 30%) |  |  |  |  | CCN(c1cc(-c2ccc(OCCOCCOCCOCCOCCOc3ccc(CCN4CC[C@H]5CCN(C(=O)[C@@H](NC(=O)[C@H](C)NC)C6CCCCC6)[C@H]5C4)cc3)cc2)cc(C(=O)NCc2c(C)cc(C)[nH]c2=O)c1C)C1CCOCC1 (racemic) [Example 8, 5-(4-[[1-(4-[2-[1-[(2S)-2-cyclohexyl-2-[(2S)-2-(methylamino)propanamido]acetyl]-octahydro-1H-pyrrolo[2,3-c]pyridin-6-yl]ethyl]phenyl)-1,4,7,10,13-pentaoxapentadecan-15-yl]oxy]phenyl)-N-[(4,6-dimethyl-2-oxo-1,2-dihydropyridin-3-yl)methyl]-3-[ethyl(oxan-4-yl)amino]-2-methylbenzamide]
2 | C (degradation between 0% and 30%) |  |  |  |  | CCN(c1cc(-c2ccc(OCCOCCOCCOc3ccc(CCN4CC[C@H]5CCN(C(=O)[C@@H](NC(=O)[C@H](C)NC)C6CCCCC6)[C@H]5C4)cc3)cc2)cc(C(=O)NCc2c(C)cc(C)[nH]c2=O)c1C)C1CCOCC1 (racemic) [Example 9, 5-[4-(2-[2-[2-(4-[2-[1-[(2S)-2-cyclohexyl-2-[(2S)-2-(methylamino)propanamido]acetyl]-octahydro-1H-pyrrolo[2,3-c]pyridin-6-yl]ethyl]phenoxy)ethoxy]ethoxy]ethoxy)phenyl]-N-[(4,6-dimethyl-2-oxo-1,2-dihydropyridin-3-yl)methyl]-3-[ethyl(oxan-4-yl)amino]-2-methylbenzamide]
3 |  | A (degradation more than 60%) | 100 to 1000 | A (degradation more than 60%) | 100 to 1000 | CN[C@@H](C)C(=O)N[C@H](C(=O)N1CC[C@@H]2CCN(CCc3ccc(OCCOCCOC4CCC(Nc5nccc(-c6cnn(Cc7ccccc7)c6N(C)C)n5)CC4)cc3)C[C@@H]21)C1CCCCC1 (mixture of isomers) [Example 17, (2S)—N-[(1S)-1-cyclohexyl-2-oxo-2-[6-(2-[4-[2-(2-[[(1r,4r)-4-([4-[1-benzyl-5-(dimethylamino)-1H-pyrazol-4-yl]pyrimidin-2-yl]amino)cyclohexyl]oxy]ethoxy)ethoxy]phenyl]ethyl)-octahydro-1H-pyrrolo[2,3-c]pyridin-1-yl]ethyl]-2-(methylamino)propanamide]
4 |  | A (degradation more than 60%) | 1 to 100 | A (degradation more than 60%) | 100 to 1000 | CN[C@@H](C)C(=O)N[C@H](C(=O)N1CC[C@@H]2CCN(CCc3ccc(OCCOCCOCCOC4CCC(Nc5nccc(-c6cnn(Cc7ccccc7)c6N(C)C)n5)CC4)cc3)C[C@@H]21)C1CCCCC1 (mixture of isomers) [Example 18, (2S)—N-[(1S)-1-cyclohexyl-2-oxo-2-[6-[2-(4-[2-[2-(2-[[(1r,4r)-4-([4-[1-benzyl-5-(dimethylamino)-1H-pyrazol-4-yl]pyrimidin-2-yl]amino)cyclohexyl]oxy]ethoxy)-ethoxy]ethoxy]phenyl)ethyl]-octahydro-1H-pyrrolo[2,3-c]pyridin-1-yl]ethyl]-2-(methylamino)propanamide]
5 |  | A (degradation more than 60%) | 1 to 100 | A (degradation more than 60%) | 100 to 1000 | CN[C@@H](C)C(=O)N[C@H](C(=O)N1CC[C@@H]2CCN(CCc3ccc(OCCOCCOCCOCCOC4CCC(Nc5nccc(-c6cnn(Cc7ccccc7)c6N(C)C)n5)CC4)cc3)C[C@@H]21)C1CCCCC1 (mixture of isomers) [Example 19, (2S)—N-[(1S)-1-cyclohexyl-2-oxo-2-(6-[2-[4-([1-[(1r,4r)-4-([4-[1-benzyl-5-(dimethylamino)-1H-pyrazol-4-yl]pyrimidin-2-yl]amino)cyclohexyl]-1,4,7,10-tetraoxadodecan-12-yl]oxy)phenyl]ethyl]-octahydro-1H-pyrrolo[2,3-c]pyridin-1-yl)ethyl]-2-(methylamino)propanamide]
6 | B (degradation between 30% and 60%) |  |  |  |  | CCN(c1cc(-c2ccc(OCCOCCOCCOc3ccc(-c4csc([C@@H]5CCCN5C(=O)[C@@H](NC(=O)[C@H](C)NC)C5CCCCC5)n4)c4ccccc34)cc2)cc(C(=O)NCc2c(C)cc(C)[nH]c2=O)c1C)C1CCOCC1 [Example 10, 5-[4-[2-(2-[2-[(4-[2-[(2S)-1-[(2S)-2-cyclohexyl-2-[(2S)-2-(methylamino)propanamido]acetyl]pyrrolidin-2-yl]-1,3-thiazol-4-yl]naphthalen-1-yl)oxy]ethoxy]ethoxy)ethoxy]phenyl]-N-[(4,6-dimethyl-2-oxo-1,2-dihydropyridin-3-yl)methyl]-3-[ethyl(oxan-4-yl)amino]-2-methylbenzamide]
7 |  | A (degradation more than 60%) | 1 to 100 | B (degradation between 30% and 60%) |  | CN[C@@H](C)C(=O)N[C@H](C(=O)N1CCC[C@H]1c1nc(-c2ccc(OCCOCCOCCOCCOCCO[C@H]3CC[C@H](Nc4nccc(-c5cnn(Cc6ccccc6)c5N(C)C)n4)CC3)c3ccccc23)cs1)C1CCCCC1 [Example 12, (2S)—N-[(1S)-1-cyclohexyl-2-oxo-2-[(2S)-2-[4-[4-([1-[(1r,4r)-4-([4-[1-benzyl-5-(dimethylamino)-1H-pyrazol-4-yl]pyrimidin-2-yl]amino)cyclohexyl]-1,4,7,10,13-pentaoxapentadecan-15-yl]oxy)naphthalen-1-yl]-1,3-thiazol-2-yl]pyrrolidin-1-yl]ethyl]-2-(methylamino)propanamide]
8 |  | A (degradation more than 60%) | 1 to 100 | A (degradation more than 60%) | 100 to 1000 | CN[C@@H](C)C(=O)N[C@H](C(=O)N1CCC[C@H]1c1nc(-c2ccc(OCCOCCO[C@H]3CC[C@H](Nc4nccc(-c5cnn(Cc6ccccc6)c5N(C)C)n4)CC3)c3ccccc23)cs1)C1CCCCC1 [Example 13, (2S)—N-[(1S)-1-cyclohexyl-2-oxo-2-[(2S)-2-(4-[4-[2-(2-[[(1r,4r)-4-([4-[1-benzyl-5-(dimethylamino)-1H-pyrazol-4-yl]pyrimidin-2-yl]amino)cyclohexyl]oxy]ethoxy)ethoxy]naphthalen-1-yl]-1,3-thiazol-2-yl)pyrrolidin-1-yl]ethyl]-2-(methylamino)propanamide]
9 |  | A (degradation more than 60%) | 1 to 100 | B (degradation between 30% and 60%) |  | CN[C@@H](C)C(=O)N[C@H](C(=O)N1CCC[C@H]1c1nc(-c2ccc(OCCOCCOCCOC3CCC(Nc4nccc(-c5cnn(Cc6ccccc6)c5N(C)C)n4)CC3)c3ccccc23)cs1)C1CCCCC1 (stereo partly drawn) [Example 14, (S)—N—((S)-2-((S)-2-(4-(4-(2-(2-(2-((1r,4r)-4-(4-(1-benzyl-5-(dimethylamino)-1H-pyrazol-4-yl)pyrimidin-2-ylamino)cyclohexyloxy)ethoxy)ethoxy)ethoxy)naphthalen-1-yl)thiazol-2-yl)pyrrolidin-1-yl)-1-cyclohexyl-2-oxoethyl)-2-(methylamino)propanamide]
10 |  | A (degradation more than 60%) | 100 to 1000 | B (degradation between 30% and 60%) |  | CN[C@@H](C)C(=O)N[C@H](C(=O)N1CCC[C@H]1c1nc(-c2ccc(OCCOCCOCCOCCOC3CCC(Nc4nccc(-c5cnn(Cc6ccccc6)c5N(C)C)n4)CC3)c3ccccc23)cs1)C1CCCCC1 (stereo partly drawn) [Example 15, (2S)—N-[(1S)-1-cyclohexyl-2-oxo-2-[(2S)-2-[4-[4-([1-[(1r,4r)-4-([4-[1-benzyl-5-(dimethylamino)-1H-pyrazol-4-yl]pyrimidin-2-yl]amino)cyclohexyl]-1,4,7,10-tetraoxadodecan-12-yl]oxy)naphthalen-1-yl]-1,3-thiazol-2-yl]pyrrolidin-1-yl]ethyl]-2-(methylamino)propanamide]

— US20220162163A1, “ALANINE-BASED MODULATORS OF PROTEOLYSIS AND ASSOCIATED METHODS OF USE” (Arvinas Operations, Inc., priority 2015, published 2022)
